For orientation: EC50 means the concentration that produces a half-maximal response. As a reminder, the IC50 is the concentration at which inhibition is half-maximal. A higher IC50 goes with lower potency.

In PubChem BioAssay AID179 (DTP/NCI, 2004) one finds outcome, EC50 and IC50 data, which are given here for 70 molecules.

This test has as its system CEM cells HIV-1 protection, formazan growth assay. Briefly: NCI AIDS Antiviral Assay. The note with it: for IC50: measured here: growth of uninfected CEM cells. An outline of the steps: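 Screen of anti-HIV-1 activity in human CEM cells using a formazan-based growth measurement at five drug concentrations. Hits with 50% or greater protection were repeated, and confirmation required reproducible complete protection.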

The source made the active and inactive calls.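 How the source made its calls: active means compounds giving half or more protection of infected cells from virus-caused growth loss, again on retest; inactive means the rest.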 Where a SMILES comes first, the peptide text is derived from it. [ ]: non-standard residue; d: D form. pGlu = O=C1CC[CH](C(=O)O)N1 Where only a bound is given, the exact number is not on record here.

Take `C(=C\c1ccc(-c2cn3cc(/C=C/C=N/NC4=NCCN4)ccc3n2)cc1)/C=N/NC1=NCCN1`: the outcome was inactive.

Turning to `Cc1nc2ccccc2c(=O)n1NC(=S)NC1CCCCC1`, the EC50 was above 4.57 µM and the 50% inhibitory concentration (IC50) is above 4.57 µM. For the molecule `O=Cn1c2ccccc2c2ccccc21`, the EC50 is above 200 µM and the half-maximal inhibitory concentration (IC50) worked out at 170 µM. The corresponding values for `COc1cccc(/C=C/c2cnc3ccccc3n2)c1OC` are above 200 µM and 151 µM. With `O=C1c2ccccc2C(=O)N1/N=C1/SC(=Nc2ccccc2)C(=Nc2ccccc2)N1c1ccccc1`, the outcome was inactive. Take `CN(C)C1C(=O)C(C(=O)NCNC(C=O)C(O)C(O)C(O)CO)=C(O)C2(O)C(=O)C3=C(O)c4c(O)cccc4C(C)(O)C3CC12` (stereo not given): the EC50 was above 178 µM and the half-maximal inhibitory concentration (IC50) stood at 110 µM. Turning to `O=S(OO)c1cc(Cl)c(O)c(Cl)c1` (stereo not given), the EC50 is above 1020 µM and the IC50 was above 1020 µM. For the molecule `Cc1ccc(S(=O)(=O)C2c3nc4ccccc4cc3-c3nc4ccccc4nc32)cc1` (stereo not given), the EC50 is above 32.4 µM and the concentration for half-maximal inhibition (IC50) was above 32.4 µM. Turning to `Cc1cc(NC(=O)c2ccc(N=Nc3cc(S(=O)(=O)O)c4ccccc4c3O)cc2)ccc1N=Nc1ccc2cc(S(=O)(=O)O)cc(S(=O)(=O)O)c2c1`, the result was active. For `Oc1ccc([C@H]2Oc3c(ccc(O)c3O)[C@@H](O)[C@H]2O)cc1O`, the EC50 was above 200 µM and the half-maximal inhibitory concentration (IC50) amounted to 29.5 µM.

`Cc1nc(C(N)=S)sc1C(=O)/C=C/c1cccc(O)c1`: the EC50 is above 85.1 µM and the 50% inhibitory concentration (IC50) is above 85.1 µM. Consider `C/C(=N/NC(=S)N1CC2CCC(CC2)C1)c1cnccn1`, for which the EC50 was above 2.24 µM and the IC50 is 0.049 µM. `Cc1cn(C2CC3C(COC(C)N3O)O2)c(=O)[nH]c1=O` (stereo not given): the EC50 is above 200 µM and the half-inhibitory concentration (IC50) is above 200 µM.

Regarding `COC(=O)C(CCS(=O)(=O)CC(=O)C(=O)Nc1cccc(C(C)=O)c1)C(=O)OC`, the result was inactive.

With `Cn1cc2ccccc2c1-c1nc(F)nc(Oc2ccc3c(c2)CC[C@@H]2C3CC[C@@]3(C)C2C[C@H](O)[C@@H]3O)n1` (stereo not given in full), the EC50 was above 10 µM and the IC50 was above 10 µM.

Consider `CC(=O)N(C(=O)CC(=O)NN)c1ccc(Cl)cc1`, for which the outcome was inactive. Turning to `CCOC(CN=c1nc(N(C)C)ss1)OCC`, the result was inactive.

`O=C(N/N=C(/c1nc2ccc(Cl)cc2[nH]c1=O)C(O)c1ccc(Cl)cc1Cl)c1ccncc1` (stereo not given): the EC50 is above 501 µM and the IC50 was determined as 162 µM. As to `CC1CCCN(CC(O)CN2CCN(CC(O)CN3CCCC(C)C3)CC2)C1` (stereo not given), the EC50 is above 13.2 µM and the half-inhibitory concentration (IC50) was above 13.2 µM. `N#Cc1n[nH]n(C2CCCCC2)c1=O`: the EC50 is above 200 µM and the IC50 was above 200 µM. For the molecule `COc1ccc(/C=C/c2nc3ccccc3nc2/C=C/c2ccc(OC)c(OC)c2)cc1OC`, the EC50 is above 100 µM and the IC50 is above 100 µM. For the molecule `CCCCCCCCCCCC[N+](CCCCCCCCCCCC)=C1SCCS1`, the result was inactive. Turning to `CC(=O)NNc1nc(C)c(C(=O)/C=C/c2ccc(Cl)cc2)s1`, the EC50 was above 56.2 µM and the concentration for half-maximal inhibition (IC50) was above 56.2 µM. Turning to `COc1ccc(Cc2nnc(Nc3ccc(Br)cc3)[nH]c2=O)cc1OC`, the EC50 was above 200 µM and the concentration for half-maximal inhibition (IC50) was determined as 33.9 µM. Consider `CC12CC[C@H](O)C(C)(C)[C@H]1CC[C@](C)(O)C2COc1ccc2ccc(=O)oc2c1` (stereo not given in full), for which the EC50 was above 324 µM and the concentration for half-maximal inhibition (IC50) was 288 µM. Turning to `CCCCCCCCCC1OC(CCCCCCCCC)OC(CCCCCCCCC)O1` (stereo not given), the EC50 was above 200 µM and the IC50 is above 200 µM. As to `CCc1cccc(C)c1NC(=O)CC1C(=O)Nc2ccccc2S1=O` (stereo not given), the outcome was inactive.

With `Nc1ccc([N+](=O)[O-])cc1CN1C(=O)c2ccccc2C1=O`, the EC50 is above 200 µM and the IC50 was above 200 µM. Turning to `CSC(=S)Nc1cc(C)cc(C)n1`, the EC50 is above 200 µM and the 50% inhibitory concentration (IC50) was above 200 µM. Take `NC(Cc1ccccc1)c1nccs1` (stereo not given): the EC50 is above 200 µM and the half-inhibitory concentration (IC50) was above 200 µM. For the molecule `CCOC(=O)c1cc(-c2ccn(C(C)=O)c2)c(-c2cc(C)co2)[nH]1`, the EC50 is 18.2 µM and the concentration for half-maximal inhibition (IC50) was above 200 µM. Take `CCOC(=O)C1c2[nH]c3ccccc3c2CCN1C(=O)c1ccco1` (stereo not given): the EC50 was above 77.6 µM and the IC50 was above 77.6 µM. Consider `CCOC(=O)C1=C(C)N(Cc2ccccc2)C(C)=C(C(=O)OCC)C1c1ccccc1O`, for which the EC50 is above 16.6 µM and the IC50 was above 16.6 µM. Turning to `C#CCN(Cc1ccc2nc(-c3ccccc3)c(N)nc2c1)c1cc(OC)c(OC)c(OC)c1`, the EC50 is above 21.9 µM and the IC50 is above 21.9 µM.

Consider `CCCN(C)C(=O)COc1cc2c(O)c3c(O)c(C)c4c(c13)C(=O)C(C)(O/C=C/C(OC)C(C)C(OC(C)=O)C(C)C(O)C(C)C(O)C(C)/C=C/C=C(\C)C(=O)N2)O4` (stereo not given), for which the EC50 was above 200 µM and the concentration for half-maximal inhibition (IC50) turned out to be 18.6 µM. For the molecule `OC1(CN2CCCCC2)N=C(c2ccccc2)c2ccsc2-n2cccc21` (stereo not given), the EC50 is above 200 µM and the IC50 came to 117 µM. The corresponding values for `COc1ccc(N2C(=O)C3c4[nH]c5ccccc5c4C4CC(C)(C)CC(C)(C)C4C3C2=O)cc1` (stereo not given) are above 4.37 µM and above 4.37 µM.

Take `CCOC(=O)Cc1[nH]c(C(=O)c2ccccc2)cc1C(=O)c1ccccc1`: the EC50 is above 200 µM and the IC50 stood at 30.2 µM.

Turning to `COc1ccc2c(c1OC)OC1CNc3cc(C)c(C)cc3N=C1C2` (stereo not given), the EC50 is 1.35 µM and the IC50 was found to be 4.57 µM.

With `CC(C)CC(NC(=O)C(CO)NC(=O)C(CCCCN)NC(=O)C(CCCCN)NC(=O)C(NC(=O)CNC(=O)C(NC(=O)C(CO)NC(=O)C(NC(=O)C(NC(=O)C(CO)NC(=O)C(CC(N)=O)NC(=O)C1CCC(=O)N1)C(C)C)C(C)C)C(C)O)C(C)C)C(=O)NC(Cc1ccccc1)C(=O)NC(CCC(N)=O)C(=O)O` (stereo not given) ([pGlu]NSVVSTGVKKSLFQ-OH; configuration not given here), the EC50 was above 30.9 µM and the IC50 was above 30.9 µM.

`C=C1CCc2occ(C)c2C2C1C1=C(CC(C)C1=O)C1OC12C` (stereo not given): the EC50 was above 219 µM and the IC50 was above 219 µM. As to `CCCCOC(C)(C)/C=C/C(O)[C@](C)(O)[C@H]1[C@H](O)C[C@@]2(C)[C@@H]3CCc4c(cc(OC5OC(CO)C(O)C(O)C5O)c(O)c4C)C3(C)C(=O)C[C@]12C` (stereo not given in full), the EC50 was above 200 µM and the IC50 was above 200 µM. `CCC1(Br)C(=O)NC(=O)NC1=O`: the EC50 was 42.7 µM and the IC50 worked out at 115 µM. In the same order, the values of `COC(=O)C1=COC(C)C2Cn3ccc4c5ccccc5nc-4c3CC12` (stereo not given) are above 129 µM and 75.9 µM.

Take `CN1C2C=CC(=O)C1C1C(=O)N(c3ccccc3)C(=O)C12` (stereo not given): the EC50 was above 891 µM and the IC50 came to 5.25 µM. In the same order, the values of `Cc1ccc2nc3c(C)c(Cl)c(=O)cc-3sc2c1` are above 19.1 µM and 16.2 µM. The corresponding values for `Brc1ccccc1CCc1ncc[nH]1` are above 575 µM and 234 µM. In the case of `NCCCCNCCCNC(=O)c1nc(-c2csc(CCN)n2)sc1Cl`, the EC50 was above 200 µM and the IC50 was above 200 µM. Regarding `COc1c(C)c(C/C=C(\C)CCCCO[Si](c2ccccc2)(c2ccccc2)C(C)(C)C)c(OC)c(OC)c1OC`, the EC50 is above 200 µM and the IC50 stood at 93.3 µM. Take `CC[N+]1(C)CCC(O)(/C=C/c2ccc(Cl)c(Cl)c2)C(C(=O)/C=C/c2ccc(Cl)c(Cl)c2)C1` (stereo not given): the EC50 was above 200 µM and the concentration for half-maximal inhibition (IC50) turned out to be 3.8 µM. For `Clc1ccc(C2=CCN3CC=C(c4ccc(Cl)cc4)C23)cc1`, the EC50 is above 200 µM and the half-maximal inhibitory concentration (IC50) came to 10.7 µM. On to `O=C(NNC(=O)c1ccccc1O)c1ccccc1O`, for which the EC50 is above 0.2 µM and the half-maximal inhibitory concentration (IC50) is 0.102 µM. `N#C/C(=C\c1ccc(F)cc1)C(=O)O`: the EC50 was above 263 µM and the IC50 is above 263 µM. With `COC(=O)CCCc1ccc2c(c1)CC1(C2)Cc2cc3c(cc2C1)CCCC3`, the EC50 was above 200 µM and the IC50 came out at 81.3 µM. As to `CC(=O)Oc1c(C(C)C)cc2c(c1OC(C)=O)C[C@@]1(C)OC(=O)CC(C)(C)C1(OC(C)=O)C=C2` (stereo not given in full), the outcome was inactive. On to `Cc1ccc(/C=C/C(=O)c2cc(CN(C)C)c(O)c(CN(C)C)c2)cc1`, for which the EC50 was above 200 µM and the half-maximal inhibitory concentration (IC50) is 20.4 µM. As to `C[C@H](CCC(=O)O)[C@H]1CC[C@H]2[C@@H]3[C@H](O)C[C@@H]4C[C@H](O)CC[C@]4(C)[C@H]3CC[C@]12C`, the EC50 is above 200 µM and the IC50 came out at 39.8 µM. Regarding `CCCCCCNCCCNc1c2ccccc2nc2cccc([N+](=O)[O-])c12`, the EC50 was above 2 µM and the IC50 was determined as 0.138 µM. In the same order, the values of `Cc1ccc(C(=O)/C=C/c2ccccc2)s1` are above 200 µM and 10.7 µM. Turning to `O=C1CN(S(=O)(=O)c2ccc([N+](=O)[O-])cc2)CC(=O)CN(S(=O)(=O)c2ccc([N+](=O)[O-])cc2)C1`, the EC50 was above 200 µM and the IC50 was above 200 µM. `NC(Cc1ccc(B(O)O)cc1)C(=O)NC(CO)CO` (stereo not given): the EC50 was above 200 µM and the IC50 is above 200 µM. Turning to `N#Cc1ccc(OCCSCCCCCCCCCCSCCOc2ccc(C#N)cc2)cc1`, the EC50 is above 2.88 µM and the half-maximal inhibitory concentration (IC50) is above 2.88 µM. On to `COc1ccc2oc(=N)c(C(=O)Nc3ccccc3)cc2c1`, for which the EC50 is above 200 µM and the IC50 was found to be 12 µM.

Consider `CC1(O)N2CCCC1(c1ccccc1)CC2` (stereo not given), for which the EC50 is above 1150 µM and the IC50 came to 178 µM. In the case of `O=C(O)C1C(C(=O)O)C2C3C4C1C1C2C3C41` (stereo not given), the outcome was inactive. In the case of `COI1NC(=O)c2ccccc21`, the half-maximal effective concentration (EC50) was 17.4 µM and the concentration for half-maximal inhibition (IC50) came to 295 µM. In the same order, the values of `Cc1nonc1NC(=O)OCc1ccccc1` are above 112 µM and above 112 µM.

Turning to `COc1cccc(Nc2nc(N)nc(N)c2N=O)c1`, the EC50 is above 200 µM and the IC50 turned out to be 11.2 µM. For `COc1ccc2c(C)cc(=O)oc2c1OC`, the EC50 is above 200 µM and the IC50 is above 200 µM. Take `CCOC(=O)c1nc2ccccc2nc1NCc1ccc(OC)cc1`: the EC50 was above 138 µM and the half-maximal inhibitory concentration (IC50) stood at 70.8 µM.
